As usually defined, the IC50 is the concentration that gives 50% inhibition.

This note sets out measurements from patent publication US10752640B2, “Compounds active towards bromodomains” (NUEVOLUTION A/S, priority 2014, dated 2020).

For assay [1], the system named is IL-12p40. Description: Cytokine release inhibition assay: LPS-induced cytokine release from human PBMCs. The following applies: PBMC, LPS 1 ng/mL, 18 h, read-out: LPS IC50 IL12p40 μM. The assay is classed as cell-based. How it is done:
Cytokine release inhibition assay: LPS-induced cytokine release from human peripheral blood mononuclear cells (PBMCs)
200,000 PBMCs were seeded per well of a 96-well plate in 160 μL of medium. Afterwards, 20 μL of ten times concentrated working dilutions of compound or DMSO control were added per well. Cells were pre-incubated with compounds for 1 h at 37° C., 5% CO2, 95% humidity and 20 μL of ten times concentrated LPS was added to cells (Sigma L4391, final concentration 1 ng/mL). Following 18 h incubation at 37° C., 5% CO2, 95% humidity, plates were centrifuged for 10 minutes at 300×g. 150 μL of supernatants were collected for IL-12p40 determination. The concentration of IL-12p40 in supernatants was determined by sandwich ELISA (enzyme-linked immunosorbent assay) using capture and detection antibodies according to the manufacturer's instructions (R&D Systems DY1240). Data can be analyzed using GraphPad Prism, and IC50 data can be obtained using non-linear regression curve fit using log(compound) vs response (variable slope).

For assay [2], the target named is BRD4 protein (Homo sapiens, UniProt O60885). In words: FRET assay, half maximal inhibitory concentration (IC50). It counts as binding. The settings on record: BRD4 protein 50 nM, Biotin-H4KAc4 peptide 12.5 nM. In a few lines: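 HTRF: 50 nM BRD4 preincubated 30 min at room temperature with compound (10-fold series from 50 μM in 12.5% DMSO) in 50 mM HEPES pH 7.5, 100 mM NaCl, 0.05% CHAPS. Then 12.5 nM biotin-H4KAc4 peptide for 30 min, and anti-GST XL665 (10 nM) plus streptavidin cryptate (2.4 nM) with 0.4 M KF for 1 h. IC50 by variable-slope fit.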

The target in assay [3] is T1, BRD4(1), first bromodomain of BRD4 (Homo sapiens, UniProt O60885).
T1 construct: BRD4(1) for the first bromodomain of BRD4; purchased DiscoveRx Corporation (assay service); host or cells: T7 phage grown in an E. coli host derived from the BL21 strain
In words: Bromoscan assay BRD4(1) (DiscoveRx). It counts as binding. The settings on record: for Kd: first bromodomain of BRD4, read-out: BromoScan BRD4_1 Kd/nM; for BromoScan BRD4_2/1: ratio of Kd BRD4_2 to BRD4_1, selectivity for BRD4_1 over BRD4_2. The protocol:
(§1) Bromoscan assays were run by DiscoveRx Corporation. The relevant assay names are BRD4(1) for the first bromodomain of BRD4 and BRD4(2) for the second bromodomain of BRD4. Further Bromoscan assays covering other bromodomains could be employed to establish the selectivity profile of a compound of interest. To run the Bromoscan assay, a T7 phage strain displaying the relevant bromodomain was grown in parallel in 24-well blocks in an E. coli host derived from the BL21 strain. E. coli were grown to log-phase and infected with T7 phage from a frozen stock (multiplicity of infection=0.4) and incubated with shaking at 32° C. until lysis (90-150 minutes). The lysates were centrifuged (5,000×g) and filtered (0.2 μm) to remove cell debris. Streptavidin-coated magnetic beads were treated with biotinylated small molecule or acetylated peptide ligands for 30 minutes at room temperature to generate affinity resins for bromodomain assays. The liganded beads were blocked with excess biotin and washed with blocking buffer (SeaBlock (Pierce), 1% BSA (bovine serum albumin), 0.05% Tween 20, 1 mM DTT (dithiothreitol)) to remove unbound ligand and to reduce non-specific phage binding. Binding reactions were assembled by combining bromodomains, liganded affinity beads, and test compounds in 1× binding buffer (17% SeaBlock, 0.33×PBS, 0.04% Tween 20, 0.02% BSA, 0.004% Sodium azide, 7.4 mM DTT). Test compounds were prepared as 1000× stocks in 100% DMSO and subsequently diluted 1:10 in monoethylene glycol (MEG) to create stocks at 100× the screening concentration (resulting stock solution is 10% DMSO/90% MEG). The compounds were then diluted directly into the assays such that the final concentration of DMSO and MEG were 0.1% and 0.9%, respectively. All reactions were performed in polystyrene 96-well plates in a final volume of 0.135 ml. The assay plates were incubated at room temperature with shaking for 1 hour and the affinity beads were washed with wash buffer (1×PBS, 0.05% Tween 20). The beads were then re-suspended in elution buffer (lx PBS, 0.05% Tween 20, 2 μM nonbiotinylated affinity ligand) and incubated at room temperature with shaking for 30 minutes. The bromodomain concentration in the eluates was measured by qPCR (quantitative real-time polymerase chain reaction).

For assay [4], the target named is T2, BRD4(2), second bromodomain of BRD4 (Homo sapiens, UniProt O60885).
T2 construct: BRD4(2) for the second bromodomain of BRD4; purchased DiscoveRx Corporation (assay service); host or cells: T7 phage grown in an E. coli host derived from the BL21 strain
In words: Bromoscan assay BRD4(2) (DiscoveRx). It counts as binding. The settings on record: read-out: BromoScan BRD4_2 Kd/nM. How it is done: as §1

[5] abbreviates: A Further List of Classification.

The structures appear in SMILES notation.

Consider `Cc1cc(O)nc2ccc(NC(=O)c3cc(C(C)O)ncc3N3CCCC3)cc12` (centres unmarked) [Compound-43], for which the half-maximal inhibitory concentration (IC50) in assay [1] was 400 nM; in assay [2] (List of Classification), below 200 nM. Moreover, the figures for the Kd in assay [3] and in assay [4] were 2.4 nM and 79 nM, respectively. Further, the “BromoScan BRD4_2/1” value in assay [3] was found to be 32.9.
For `Cc1cc2nc(O)cc(C)c2cc1NC(=O)c1cc(S(=O)(=O)N(C)C)ccc1N1CCOCC1` [Compound-99, 5-(dimethylsulfamoyl)-N-(2-hydroxy-4,7-dimethyl-6-quinolyl)-2-morpholino-benzamide], in that order: 400 nM, below 200 nM, 12 nM, 5600 nM and 466.7.
Regarding `Cc1cc(O)nc2ccc(NC(=O)c3cccnc3N3CCOCC3)cc12` [Compound-128, N-(2-hydroxy-4-methyl-6-quinolyl)-2-morpholino-pyridine-3-carboxamide], the half-maximal inhibitory concentration (IC50) in assay [1] was 300 nM; in assay [2] (List of Classification) it was below 200 nM. Also, the values for the Kd in assay [3] and in assay [4] were 15 nM and 2500 nM, respectively. Moreover, in assay [3], the “BromoScan BRD4_2/1” value worked out at 166.7.
As for `Cc1cc(O)nc2ccc(NC(=O)c3cc(CN4CCCN(C)CC4)ccc3N3CCCC3)cc12` [S87, N-(2-hydroxy-4-methyl-6-quinolyl)-5-[(4-methyl-1,4-diazepan-1-yl)methyl]-2-pyrrolidin-1-yl-benzamide], in assay [2] (setting [5]), the half-inhibitory concentration (IC50) is below 200 nM.
For the compound `COC1CCN(Cc2ccc(N3CCCC3)c(C(=O)Nc3ccc4nc(O)cc(C)c4c3)c2)C1` (centres unmarked) [S88, N-(2-hydroxy-4-methyl-6-quinolyl)-5-[(3-methoxypyrrolidin-1-yl)methyl]-2-pyrrolidin-1-yl-benzamide], the 50% inhibitory concentration (IC50) in assay [2] (setting [5]) was below 200 nM.
The same measure, in the same setting: to `Cc1cc(O)nc2ccc(NC(=O)c3cc(CN4CC(O)C4)ccc3N3CCCC3)cc12` [S89, 5-[(3-hydroxyazetidin-1-yl)methyl]-N-(2-hydroxy-4-methyl-6-quinolyl)-2-pyrrolidin-1-yl-benzamide] belongs below 200 nM; to `COCC1CN(Cc2ccc(N3CCCC3)c(C(=O)Nc3ccc4nc(O)cc(C)c4c3)c2)C1` [S90, N-(2-hydroxy-4-methyl-6-quinolyl)-5-[[3-(methoxymethyl)azetidin-1-yl]methyl]-2-pyrrolidin-1-yl-benzamide], below 200 nM.
Turning to `COCC1CCCN(Cc2ccc(N3CCCC3)c(C(=O)Nc3ccc4nc(O)cc(C)c4c3)c2)C1` (centres unmarked) [S91, N-(2-hydroxy-4-methyl-6-quinolyl)-5-[[3-(methoxymethyl)-1-piperidyl]methyl]-2-pyrrolidin-1-yl-benzamide], in assay [2] (setting [5]), the IC50 is below 200 nM.
Still for that read-out and setting: to `Cc1cc(O)nc2ccc(NC(=O)c3cc(CN4CCOCC4)cnc3N3CCC(C)C3)cc12` (centres unmarked) [S93, N-(2-hydroxy-4-methyl-6-quinolyl)-2-(3-methylpyrrolidin-1-yl)-5-(morpholinomethyl)pyridine-3-carboxamide] belongs below 200 nM; to `Cc1cc(O)nc2ccc(NC(=O)c3cc(CN4CCOCC4)cnc3N3CCCC3C)cc12` (centres unmarked) [S94, N-(2-hydroxy-4-methyl-6-quinolyl)-2-(2-methylpyrrolidin-1-yl)-5-(morpholinomethyl)pyridine-3-carboxamide], 200 to 500 nM.
On the same count and under the same terms, the value for `Cc1cc(O)nc2ccc(NC(=O)c3cc(CN4CCOCC4)cnc3N3CCC(C)(F)C3)cc12` (centres unmarked) [S97, 2-(3-fluoro-3-methyl-pyrrolidin-1-yl)-N-(2-hydroxy-4-methyl-6-quinolyl)-5-(morpholinomethyl)pyridine-3-carboxamide] was 200 to 500 nM.
Still for that read-out and setting: the value for `Cc1cc(O)nc2ccc(NC(=O)c3cc(CN4CCOCC4)cnc3N3CCC(C(N)=O)C3)cc12` (centres unmarked) [S98, 2-(3-carbamoylpyrrolidin-1-yl)-N-(2-hydroxy-4-methyl-6-quinolyl)-5-(morpholinomethyl)pyridine-3-carboxamide] was 500 to 1000 nM; that for `Cc1cc(O)nc2ccc(NC(=O)c3cc(CN4CCOCC4)cnc3N3CCC(CC(C)C)C3)cc12` (centres unmarked) [S101, N-(2-hydroxy-4-methyl-6-quinolyl)-2-(3-isobutylpyrrolidin-1-yl)-5-(morpholinomethyl)pyridine-3-carboxamide] was 1000 to 10000 nM; that for `Cc1cc(O)nc2ccc(NC(=O)c3cc(CN4CCOCC4)cnc3N3CCC(N4CCCC4)C3)cc12` (centres unmarked) [S107, N-(2-hydroxy-4-methyl-6-quinolyl)-5-(morpholinomethyl)-2-(3-pyrrolidin-1-ylpyrrolidin-1-yl)pyridine-3-carboxamide] was 1000 to 10000 nM.
In assay [2] (setting [5]), `Cc1cc(O)nc2ccc(NC(=O)c3cc(CN4CCOCC4)cnc3N3CCCC3C(=O)N(C)C)cc12` (centres unmarked) [S109, 2-[2-(dimethylcarbamoyl)pyrrolidin-1-yl]-N-(2-hydroxy-4-methyl-6-quinolyl)-5-(morpholinomethyl)pyridine-3-carboxamide] came in with a half-inhibitory concentration (IC50) of 500 to 1000 nM.
Same read-out and setting: the value for `Cc1cc(O)nc2ccc(NC(=O)c3cc(CN4CCOCC4)cnc3N3CCC(c4ccncc4)C3)cc12` (centres unmarked) [S111, N-(2-hydroxy-4-methyl-6-quinolyl)-5-(morpholinomethyl)-2-[3-(4-pyridyl)pyrrolidin-1-yl]pyridine-3-carboxamide] was 500 to 1000 nM.
Still for that read-out and setting: to `Cc1cc(O)nc2ccc(NC(=O)c3cc(CN4CCOCC4)cnc3N3CCOC(CO)C3)cc12` (centres unmarked) [S114, 2-[2-(hydroxymethyl)morpholin-4-yl]-N-(2-hydroxy-4-methyl-6-quinolyl)-5-(morpholinomethyl)pyridine-3-carboxamide] belongs above 10000 nM.
In assay [2] (setting [5]), `Cc1cc(O)nc2ccc(NC(=O)c3cc(CN4CCOCC4)cnc3N3CC(CO)OCC3C)cc12` (centres unmarked) [S115, 2-[2-(hydroxymethyl)-5-methyl-morpholin-4-yl]-N-(2-hydroxy-4-methyl-6-quinolyl)-5-(morpholinomethyl)pyridine-3-carboxamide] had an IC50 above 10000 nM.
As for `Cc1cc(O)nc2ccc(NC(=O)c3cc(CN4CCOCC4)cnc3N3CCOC(CN(C)C)C3)cc12` (centres unmarked) [S117, 2-[2-(dimethylaminomethyl)morpholin-4-yl]-N-(2-hydroxy-4-methyl-6-quinolyl)-5-(morpholinomethyl)pyridine-3-carboxamide], the IC50 in assay [2] (setting [5]) was above 10000 nM.
On the same count and under the same terms, to `Cc1cc(O)nc2ccc(NC(=O)c3cc(CN4CCOCC4)cnc3N3CCC(CO)C3)cc12` (centres unmarked) [S118, 2-[3-(hydroxymethyl)pyrrolidin-1-yl]-N-(2-hydroxy-4-methyl-6-quinolyl)-5-(morpholinomethyl)pyridine-3-carboxamide] belongs above 10000 nM.
